# Biological target: Platelet-activating factor receptor (Homo sapiens, UniProt P25105)
# Test: Antagonist activity at human PAFR expressed in HEK293 cells assessed as inhibition of PAF C-16 ligand induced receptor activation preincubated for 90 mins followed by PAF ligand addition and measured after 60 mins by HTRF IP1 assay
# Format: functional, cell-based
# Platelet-activating factor receptor, sequence (P25105 whole entry): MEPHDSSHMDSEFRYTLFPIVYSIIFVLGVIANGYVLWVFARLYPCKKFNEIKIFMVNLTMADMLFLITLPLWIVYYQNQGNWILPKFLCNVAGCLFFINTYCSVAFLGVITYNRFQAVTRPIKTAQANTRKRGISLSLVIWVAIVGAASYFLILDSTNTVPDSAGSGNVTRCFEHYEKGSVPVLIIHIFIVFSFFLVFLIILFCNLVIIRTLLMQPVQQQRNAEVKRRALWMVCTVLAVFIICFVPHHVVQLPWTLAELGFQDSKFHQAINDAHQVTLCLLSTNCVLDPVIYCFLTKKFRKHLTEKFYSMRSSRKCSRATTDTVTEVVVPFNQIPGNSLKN
row,IC50 [nM],SMILES
1,1.3,Cc1nnc2n1-c1sc3c(c1[C@@H](c1ccccc1Cl)NC2)C[C@@H](C(=O)NC1CCC(F)(F)CC1)C3
2,1.1,Cc1nnc2n1-c1sc3c(c1[C@H](c1ccccc1Cl)NC2)C[C@@H](C(=O)NCc1ccccc1)C3
3,1.3,Cc1nnc2n1-c1sc3c(c1[C@@H](c1ccccc1Cl)NC2)C[C@@H](C(=O)NC1(c2ccc(Cl)cn2)CC1)C3
4,0.4,Cc1nnc2n1-c1sc3c(c1[C@@H](c1ccccc1Cl)NC2)C[C@@H](C(=O)NCc1ccc(C(F)(F)F)cc1)C3
